Data set [1] in a line: Pharmacokinetics of D3-creatine in plasma after a single oral tracer dose. It counts as in vivo, human. As to conditions: healthy subjects. As for the experimental part:
Subjects were housed on the in-patient unit for the full 5 day study. Subjects were admitted on Day-1, for baseline evaluation and acclimation.
(§1) In the older subjects, sampling was extended to 72 hr (24, 36, 48, and 72 hr). Urine was collected continuously beginning at baseline, day −1, through day 5 of the study in timed intervals. On Day −1, subjects entered the clinic prior to noon, and timed urine collections began at 12:00 PM with 12:00 PM being time 0 (0-4, 4-8, 8-12, 12-20 h), and completed at 8:00 AM the next day, Day 1.
(§2) Total body creatine pool size and muscle mass were calculated from D3-creatinine enrichment in urine. Total body muscle mass was measured by MRI (serial cross sections), and total lean body mass (LBM) and appendicular lean mass (ALM) were measured by DXA during the subjects' stay on the inpatient unit.

A short description of data set [2]: Urinary excretion and renal clearance of the D3-creatine tracer dose. Type of data set: in vivo, human. As for the experimental part: as §1, §2
The data were analyzed in SAS v9.2 (SAS Institute, Cary, N.C.) and graphs were produced in either SAS or TSCG. […] There were no adjustments for multiplicity.

For data set [3] the following is noted: in vivo, po.
Protocol: Enrichment of D3-creatinine in urine to total creatinine in urine was determined for each urine collection interval. Achievement of steady-state enrichment was determined by a combination of visual inspection and linear regression. […] Linear regression of the enrichment ratio on time (midpoint of the urine collection interval) was performed for each subject separately. […] The earliest time point included in the final regression was defined as the time to achievement of steady-state.

Compound `[2H]C([2H])([2H])N(CC(=O)O)C(=N)N` [D3-creatine] returned a cleared from plasma in data set [1] (single oral tracer dose 30-100 mg, within 24 h) of approximately 80%. The “cleared from plasma by 72 h” value in data set [1] (single oral tracer dose, by 72 h) is given as “essentially cleared”. Further, the “% of D3-creatine recovered in urine over 120 h” value in data set [2] (range across subjects, single oral dose 30-100 mg) is 0.1 to 34%.
D3-creatinine: the “time to achievement of steady-state enrichment in urine” value in data set [3] is 30.7 h. For the same compound, in data set [2] (human, in vivo), the renal clearance was in the range of 0.26 to 56 mL/min and the “renal clearance as % of the dose” value is recorded as 0.1% to 34.
